Test results from patent US20250057819A1, “DRUG COMBINATIONS FOR INHIBITING CORONAVIRUS REPLICATION” (priority 2021, published 2025).
Where a name gives a salt, the structure may show the parent alone. Read-outs that look alike come from different tables or passages of the source.

How the values were obtained:
Experiment in all cases: microbe, parasite or virus in culture
Format in all cases: cell-based
[1] = test system: SARS-CoV-2; conditions: read-out: SARS-CoV-2 (Vido) EC50
[2] = test system: SARS-CoV-2 (Alpha); conditions: Huh7.5 cells, monotherapy
[3] = test system: SARS-CoV-2 (Beta); conditions: Huh7.5 cells, monotherapy
[4] = Severe acute respiratory syndrome coronavirus 2, Huh7.5
[5] = Severe acute respiratory syndrome coronavirus 2

Structure (SMILES)	EC50 [1, 4]	EC50 [2, 5]	EC50 [3, 5]	EC50 [1]	EC50 [2]	EC50 [3]
CCN(CC)CCOc1ccc2c(c1)C(=O)c1cc(OCCN(CC)CC)ccc1-2 [Tilorone dihydrochloride]	930 nM	250 nM	190 nM			
Cc1c(O)cccc1C(=O)N[C@@H](CSc1ccccc1)[C@H](O)CN1C[C@H]2CCCC[C@H]2C[C@H]1C(=O)NC(C)(C)C [Nelfinavir mesylate]	1800 nM	500 nM	110 nM			
CC(C)C(=O)OC[C@H]1O[C@@H](n2cc/c(=N\O)[nH]c2=O)[C@H](O)[C@@H]1O [Molnupinavir]				90 nM	60 nM	110 nM
